Laboratory results taken from BindingDB's records for patent US11214574 (Prelude Therapeutics, Incorporated, 2022).

Biological target: Methylosome protein 50/Protein arginine N-methyltransferase 5 (Homo sapiens, UniProt O14744+Q9BQA1)
Assay: Biochemical Assay
Protocol: Compounds were solubilized and 3-fold diluted in 100% DMSO. […] Standard reactions were performed in a total volume of 30 μl in assay buffer, with 300 nM histone H4 based AcH4-23 (Anaspec: AS-65002) as substrate. To this was added the PRMT5/MEP50 complex diluted to provide a final assay concentration of 2.5 nM and the compounds were allowed to preincubate for 20 minutes at 37° C. The reaction was initiated by adding S-[3H-methyl]-adenosyl-L-methionine (PerkinElmer: NET155001MC) to final concentration of 1 μM. Following a 30 minutes incubation at 37° C., the reaction was stopped by adding 25 μL of 8M Guanidine HCl. Prepare streptavidin YSI SPA beads (Perkinelmer: RPNQ0012) at 0.3 mg/mL in assay buffer. To each reaction, add 150 μL of SPA beads suspension, and incubated while shaking at room temperature for 30 minutes. The plate was centrifuged at 100×g for 30 second before reading in a scintillation counter. IC50 values were determined by fitting the data to the standard 4 parameters with Hill Slope using GraphPad Prism software.

Sequence of Methylosome protein 50/Protein arginine N-methyltransferase 5 (O14744 whole entry): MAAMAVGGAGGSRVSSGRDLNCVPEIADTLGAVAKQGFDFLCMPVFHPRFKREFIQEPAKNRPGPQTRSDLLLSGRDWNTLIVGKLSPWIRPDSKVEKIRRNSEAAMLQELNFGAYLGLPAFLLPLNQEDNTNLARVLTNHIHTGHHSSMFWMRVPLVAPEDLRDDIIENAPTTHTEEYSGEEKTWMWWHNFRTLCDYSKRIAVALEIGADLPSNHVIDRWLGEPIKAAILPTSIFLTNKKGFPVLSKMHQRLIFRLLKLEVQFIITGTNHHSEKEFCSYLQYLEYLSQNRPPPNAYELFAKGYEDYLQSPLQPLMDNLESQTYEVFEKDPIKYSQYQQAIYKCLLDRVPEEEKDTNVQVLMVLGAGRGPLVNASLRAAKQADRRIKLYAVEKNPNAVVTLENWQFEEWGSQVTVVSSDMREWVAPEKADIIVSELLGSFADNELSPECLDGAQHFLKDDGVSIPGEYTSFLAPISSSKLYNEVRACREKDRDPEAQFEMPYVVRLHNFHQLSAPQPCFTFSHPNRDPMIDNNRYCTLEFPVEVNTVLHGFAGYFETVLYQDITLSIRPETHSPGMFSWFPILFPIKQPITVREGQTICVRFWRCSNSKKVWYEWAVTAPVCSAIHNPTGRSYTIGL
Sequence of Methylosome protein 50/Protein arginine N-methyltransferase 5 (Q9BQA1 whole entry): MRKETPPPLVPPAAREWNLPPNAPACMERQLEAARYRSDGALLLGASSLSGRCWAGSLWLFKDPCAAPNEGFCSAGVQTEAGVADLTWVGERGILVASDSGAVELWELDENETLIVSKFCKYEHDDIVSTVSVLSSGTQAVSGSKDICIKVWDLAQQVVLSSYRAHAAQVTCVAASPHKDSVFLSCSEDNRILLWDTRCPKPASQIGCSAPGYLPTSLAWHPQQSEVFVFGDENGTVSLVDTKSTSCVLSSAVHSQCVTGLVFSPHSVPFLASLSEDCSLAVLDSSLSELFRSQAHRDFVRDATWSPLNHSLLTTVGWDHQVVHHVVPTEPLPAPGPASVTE

IC50: 270 nM
SMILES: Nc1ncnc2c1ccn2[C@@H]1O[C@H]([C@H]2OC(=O)c3cc(Cl)ccc32)[C@@H](O)[C@H]1O [US11214574, Ex# 1B]
